The values that follow come from US10544120B2, “Biaryl kinase inhibitors” (BRISTOL-MYERS SQUIBB COMPANY, priority 2015, dated 2020).

This experiment concerns the target GST-Xa-hAAK1 (Homo sapiens (Human), UniProt Q2M2I8). The experiment can be described thus: AAK1 Kinase Assay. It is filed as biochemical. The settings on record: bacterially expressed GST-Xa-hAAK1 3.5 nM; ATP 22 μM; fluoresceinated peptide 1.5 μM; 3 hours at room temperature; Caliper LabChip 3000. How it is done: The assays were performed in U-bottom 384-well plates. […] The reactions were initiated by the combination of bacterially expressed, GST-Xa-hAAK1 with substrates and test compounds. The reactions were incubated at room temperature for 3 hours and terminated by adding 60 μl of 35 mM EDTA buffer to each sample. The reactions were analyzed on the Caliper LabChip 3000 (Caliper, Hopkinton, Mass.) by electrophoretic separation of the fluorescent substrate and phosphorylated product. […] Compounds were dissolved at 10 mM in dimethylsulfoxide (DMSO) and evaluated at eleven concentrations. IC50 values were derived by non-linear regression analysis.

Chain of GST-Xa-hAAK1 (Q2M2I8 whole entry): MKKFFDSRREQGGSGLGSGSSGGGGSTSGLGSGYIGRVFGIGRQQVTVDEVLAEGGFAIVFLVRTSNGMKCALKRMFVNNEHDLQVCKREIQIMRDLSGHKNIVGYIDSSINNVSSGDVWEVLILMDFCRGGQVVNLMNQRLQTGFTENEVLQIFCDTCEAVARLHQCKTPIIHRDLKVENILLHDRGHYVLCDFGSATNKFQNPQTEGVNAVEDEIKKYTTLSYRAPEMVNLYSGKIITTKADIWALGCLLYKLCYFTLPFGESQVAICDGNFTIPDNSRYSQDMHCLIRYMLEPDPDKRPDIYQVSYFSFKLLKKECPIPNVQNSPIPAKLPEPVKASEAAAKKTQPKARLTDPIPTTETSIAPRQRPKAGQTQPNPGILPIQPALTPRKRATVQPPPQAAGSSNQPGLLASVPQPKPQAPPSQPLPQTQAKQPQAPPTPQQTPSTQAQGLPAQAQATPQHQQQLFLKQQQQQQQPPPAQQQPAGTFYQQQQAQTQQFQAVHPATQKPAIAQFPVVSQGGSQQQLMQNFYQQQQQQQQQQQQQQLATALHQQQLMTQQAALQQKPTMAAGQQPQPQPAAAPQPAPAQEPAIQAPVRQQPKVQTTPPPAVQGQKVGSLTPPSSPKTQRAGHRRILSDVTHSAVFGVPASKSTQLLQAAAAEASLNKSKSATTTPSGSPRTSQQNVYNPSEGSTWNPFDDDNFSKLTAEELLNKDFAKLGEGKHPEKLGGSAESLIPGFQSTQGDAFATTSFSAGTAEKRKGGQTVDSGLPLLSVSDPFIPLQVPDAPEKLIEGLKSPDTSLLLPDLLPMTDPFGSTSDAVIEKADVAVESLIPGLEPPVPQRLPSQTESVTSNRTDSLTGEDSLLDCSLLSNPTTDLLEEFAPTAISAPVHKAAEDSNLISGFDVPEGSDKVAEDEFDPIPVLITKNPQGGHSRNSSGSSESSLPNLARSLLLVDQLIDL

Turning to `COC(=O)Nc1cc(-c2ccc(OC[C@@](C)(N)CC(C)C)c(C(F)(F)F)c2)ncn1` [Example 432, (S)-methyl (6-(4-((2-amino-2,4-dimethylpentyl)oxy)-3-(trifluoromethyl)phenyl)pyrimidin-4-yl)carbamate], the concentration for half-maximal inhibition (IC50) was 0.7 nM. With `COC(=O)Nc1cc(-c2ccc(OC[C@@](C)(N)CC(C)C)c(C)c2)ncn1` [Example 433, (S)-methyl (6-(4-((2-amino-2,4-dimethylpentyl)oxy)-3-methylphenyl)pyrimidin-4-yl)carbamate], the IC50 was 1.8 nM. The same measure for `Cc1cc(-c2cc(F)c(OC[C@@](C)(N)CC(C)C)cc2F)ncn1` [Example 435, (S)-1-(2,5-difluoro-4-(6-methylpyrimidin-4-yl)phenoxy)-2,4-dimethylpentan-2-amine]: 63 nM. Take `Cc1cc(-c2ccc(OC[C@@](C)(N)CC(C)C)c(C#N)c2)ncn1` [Example 436, (S)-2-((2-amino-2,4-dimethylpentyl)oxy)-5-(6-methylpyrimidin-4-yl)benzonitrile]: the IC50 was determined as 6.2 nM. For `COC(=O)Nc1cc(-c2cnc(OC[C@@](C)(N)CC(C)C)c(Cl)c2)ncn1` [Example 437, (S)-methyl (6-(6-((2-amino-2,4-dimethylpentyl)oxy)-5-chloropyridin-3-yl)pyrimidin-4-yl)carbamate], the IC50 stood at 2.2 nM. `COC(=O)Nc1cc(-c2cnc(OC[C@@](C)(N)CC(C)C)c(C)c2)ncn1` [Example 438, (S)-methyl (6-(6-((2-amino-2,4-dimethylpentyl)oxy)-5-methylpyridin-3-yl)pyrimidin-4-yl)carbamate]: the IC50 was found to be 6.5 nM. For the molecule `COc1cc(-c2ccc(OC[C@@](C)(N)CC(C)C)c(C#N)c2)ncn1` [Example 439, (S)-2-((2-amino-2,4-dimethylpentyl)oxy)-5-(6-methoxypyrimidin-4-yl)benzonitrile], the IC50 is 128 nM. The result for `COc1cc(-c2ccc(OC[C@@](C)(N)CC(C)C)c(C(F)(F)F)c2)ncn1` [Example 440, (S)-1-(4-(6-methoxypyrimidin-4-yl)-2-(trifluoromethyl)phenoxy)-2,4-dimethylpentan-2-amine] reads 308 nM; that for `CC(C)C[C@](C)(N)COc1ccc(-c2cc(Cl)ncn2)cc1C#N` [Example 441, (S)-2-((2-amino-2,4-dimethylpentyl)oxy)-5-(6-chloropyrimidin-4-yl)benzonitrile], 15 nM.

For the molecule `CC(C)C[C@](C)(N)COc1ccc(-c2cc(Cl)ncn2)cc1C(F)(F)F` [Example 442, (S)-1-(4-(6-chloropyrimidin-4-yl)-2-(trifluoromethyl)phenoxy)-2,4-dimethylpentan-2-amine], the IC50 came to 19 nM. With `CCc1cc(-c2ccc(OC[C@@](C)(N)CC(C)C)c(C#N)c2)ncn1` [Example 443, (S)-2-((2-amino-2,4-dimethylpentyl)oxy)-5-(6-ethylpyrimidin-4-yl)benzonitrile], the IC50 came out at 46 nM.

On to `CCc1cc(-c2ccc(OC[C@@](C)(N)CC(C)C)c(C(F)(F)F)c2)ncn1` [Example 444, (S)-1-(4-(6-ethylpyrimidin-4-yl)-2-(trifluoromethyl)phenoxy)-2,4-dimethylpentan-2-amine], for which the IC50 was 153 nM. On to `Cc1cc(-c2cnc(OC[C@@](C)(N)CC(C)C)c(Cl)c2)ncn1` [Example 445, (S)-1-((3-chloro-5-(6-methylpyrimidin-4-yl)pyridin-2-yl)oxy)-2,4-dimethylpentan-2-amine], for which the IC50 amounted to 62 nM. As to `Cc1cc(-c2cnc(OC[C@@](C)(N)CC(C)C)c(C)c2)ncn1` [Example 446, (S)-2,4-dimethyl-1-((3-methyl-5-(6-methylpyrimidin-4-yl)pyridin-2-yl)oxy)pentan-2-amine], the IC50 was 317 nM.

For the molecule `CCc1cc(-c2cnc(OC[C@@](C)(N)CC(C)C)c(C)c2)ncn1` [Example 447, (S)-1-((5-(6-ethylpyrimidin-4-yl)-3-methylpyridin-2-yl)oxy)-2,4-dimethylpentan-2-amine], the IC50 was 304 nM. The result for `Cc1cc(-c2cc(C)c(OC[C@@](C)(N)CC(C)C)cn2)ncn1` [Example 450, (S)-2,4-dimethyl-1-((4-methyl-6-(6-methylpyrimidin-4-yl)pyridin-3-yl)oxy)pentan-2-amine] reads 126 nM; that for `Cc1nc(-c2ccnc(Cl)n2)ccc1OC[C@@](C)(N)CC(C)C` [Example 451, (S)-1-((6-(2-chloropyrimidin-4-yl)-2-methylpyridin-3-yl)oxy)-2,4-dimethylpentan-2-amine], 2.7 nM. The same measure for `Cc1nccc(-c2ccc(OC[C@@](C)(N)CC(C)C)c(C(F)(F)F)n2)n1` [Example 454, (S)-2,4-dimethyl-1-((6-(2-methylpyrimidin-4-yl)-2-(trifluoromethyl)pyridin-3-yl)oxy)pentan-2-amine]: 2.4 nM. For the molecule `Cc1nccc(-c2ccc(OC[C@@](C)(N)CC(C)C)c(C#N)c2)n1` [Example 458, (S)-2-(2-amino-2,4-dimethylpentyloxy)-5-(2-methylpyrimidin-4-yl) benzonitrile], the IC50 amounted to 1.5 nM. Take `Cc1nccc(-c2ccc(OC[C@@](C)(N)CC(C)C)c(F)c2)n1` [Example 462, (S)-1-(2-fluoro-4-(2-methylpyrimidin-4-yl)phenoxy)-2,4-dimethylpentan-2-amine]: the IC50 turned out to be 21 nM. Regarding `CC(C)C[C@](C)(N)COc1ccc(-c2ccnc(C(F)(F)F)n2)cc1Cl` [Example 465, (S)-1-(2-chloro-4-(2-(trifluoromethyl)pyrimidin-4-yl)phenoxy)-2,4-dimethylpentan-2-amine], the IC50 was found to be 3.6 nM. `Cc1nccc(-c2ccc(OC[C@@](C)(N)CC(C)C)c(Cl)c2)n1` [Example 469, (S)-1-(2-chloro-4-(2-methylpyrimidin-4-yl)phenoxy)-2,4-dimethylpentan-2-amine]: the IC50 is 1.5 nM.

In the case of `CC(C)C[C@](C)(N)COc1ccc(-c2ccnc(C(F)(F)F)n2)cc1C#N` [Example 474, (S)-2-(2-amino-2,4-dimethylpentyloxy)-5-(2-(trifluoromethyl)pyrimidin-4-yl)benzonitrile], the concentration for half-maximal inhibition (IC50) worked out at 6.6 nM. As to `Cc1cc(-c2ccc(OC[C@@](C)(N)CC(C)C)c(C(F)(F)F)c2)nc(C)n1` [Example 479, (S)-1-(4-(2,6-dimethylpyrimidin-4-yl)-2-(trifluoromethyl)phenoxy)-2,4-dimethylpentan-2-amine], the IC50 was 533 nM. In the case of `CC(C)C[C@](C)(N)COc1ccc(-c2ccnc(C(C)C)n2)cc1Cl` [Example 480, (S)-1-(2-chloro-4-(2-isopropylpyrimidin-4-yl)phenoxy)-2,4-dimethylpentan-2-amine], the IC50 was determined as 18 nM. In the case of `Cc1nccc(-c2ccc(OC[C@@](C)(N)CC(C)C)c(C)n2)n1` [Example 484, (S)-2,4-dimethyl-1-(2-methyl-6-(2-methylpyrimidin-4-yl)pyridin-3-yloxy)pentan-2-amine], the IC50 was 3.2 nM. For the molecule `Cc1nccc(-c2cc(C#N)c(OC[C@@](C)(N)CC(C)C)cn2)n1` [Example 487, (S)-5-(2-amino-2,4-dimethylpentyloxy)-2-(2-methylpyrimidin-4-yl)isonicotinonitrile], the half-maximal inhibitory concentration (IC50) turned out to be 1290 nM. The result for `Cc1nccc(-c2ccc(OCC(N)(CC(C)C)C(F)(F)F)c(C)n2)n1` (stereo not shown) [Example 491, 1,1,1-trifluoro-4-methyl-2-(((2-methyl-6-(2-methylpyrimidin-4-yl)pyridin-3-yl)oxy)methyl)pentan-2-amine] reads 789 nM. Turning to `COC(=O)Nc1nccc(-c2ccc(OC[C@@](C)(N)CC(C)C)cc2)n1` [Example 505, (S)-methyl (4-(4-((2-amino-2,4-dimethylpentyl)oxy)phenyl)pyrimidin-2-yl)carbamate], the IC50 was 8.7 nM. As to `Cc1nccc(-c2cc(F)c(OC[C@@](C)(N)CC(C)C)cc2F)n1` [Example 506, (S)-1-(2,5-difluoro-4-(2-methylpyrimidin-4-yl)phenoxy)-2,4-dimethylpentan-2-amine], the half-maximal inhibitory concentration (IC50) is 134 nM.

On to `COC(=O)Nc1cc(-c2cc(F)c(OC[C@@](C)(N)CC(C)C)cc2F)ncn1` [Example 507, (S)-methyl (6-(4-((2-amino-2,4-dimethylpentyl)oxy)-2,5-difluorophenyl)pyrimidin-4-yl)carbamate], for which the IC50 was 5 nM. The same measure for `COC(=O)Nc1nccc(-c2cc(F)c(OC[C@@](C)(N)CC(C)C)cc2F)n1` [Example 508, (S)-methyl (4-(4-((2-amino-2,4-dimethylpentyl)oxy)-2,5-difluorophenyl)pyrimidin-2-yl)carbamate]: 25 nM; for `CC(C)C[C@](C)(N)COc1cc(F)c(-c2ccnc(C(F)F)c2)cc1F` [Example 510, (S)-1-(4-(2-(difluoromethyl)pyridin-4-yl)-2,5-difluorophenoxy)-2,4-dimethylpentan-2-amine]: 19 nM. As to `Cc1nccc(-c2ccc(OC[C@@](C)(N)CC(C)C)c(F)c2F)n1` [Example 511, (S)-1-(2,3-difluoro-4-(2-methylpyrimidin-4-yl)phenoxy)-2,4-dimethylpentan-2-amine], the 50% inhibitory concentration (IC50) came to 5.1 nM.

The term IC50 denotes the point on the concentration scale where inhibition reaches its midpoint.
